Laboratory results: patent publication US20250147039A1, “Compounds for complexation of rare earth elements and/or s-, p-, d- block metals, their coordination compounds, peptide conjugates, method of their preparation and use thereof” (USTAV ORGANICKE CHEMIE A BIOCHEMIE AV CR V.V.I., priority 2021, published 2025)

Columns and labels:
[1] = Alkali metal dependent formation of 1,5-cz-Lig and 1,4-cz-Lig isomers from Lig at pH 10.2 (Chart 14); type: physicochemical; conditions: B: 1 day at 80° C.; Borate/(M^I)2CO3 buffer pH 10.2; visible analyte free precipitate
[2] = pH dependent formation of 1,5- and 1,4-cz-Lig isomers from Lig (pH dependent click-zip) (Chart 13); type: physicochemical
[3] = A: 1 hour at 80° C., 0.1M HClO4 (pH ~1)
[4] = A: 1 hour at 80° C., 1.0M HClO4 (pH ~0)
[5] = A: 1 hour at 80° C., pH 2.2, 50 mM aq. buffer
[6] = A: 1 hour at 80° C., pH 3.0, 50 mM aq. buffer
[7] = A: 1 hour at 80° C., pH 3.8, 50 mM aq. buffer
[8] = A: 1 hour at 80° C., pH 4.6, 50 mM aq. buffer
[9] = A: 1 hour at 80° C., pH 5.4, 50 mM aq. buffer
[10] = A: 1 hour at 80° C., pH 6.2, 50 mM aq. buffer
[11] = A: 1 hour at 80° C., pH 7.0, 50 mM aq. buffer
[12] = A: 1 hour at 80° C., pH 8.6, 50 mM aq. buffer
[13] = A: 1 hour at 80° C., pH 9.4, 50 mM aq. buffer
[14] = A: 1 hour at 80° C., pH 10.2, 50 mM aq. buffer
[15] = B: 1 day at 80° C., 0.1M HClO4 (pH ~1)
[16] = B: 1 day at 80° C., 1.0M HClO4 (pH ~0)
[17] = B: 1 day at 80° C., pH 2.2, 50 mM aq. buffer
[18] = B: 1 day at 80° C., pH 3.0, 50 mM aq. buffer
[19] = B: 1 day at 80° C., pH 3.8, 50 mM aq. buffer
[20] = B: 1 day at 80° C., pH 4.6, 50 mM aq. buffer
[21] = B: 1 day at 80° C., pH 5.4, 50 mM aq. buffer
[22] = B: 1 day at 80° C., pH 6.2, 50 mM aq. buffer
[23] = B: 1 day at 80° C., pH 7.0, 50 mM aq. buffer
[24] = B: 1 day at 80° C., pH 8.6, 50 mM aq. buffer
[25] = B: 1 day at 80° C., pH 9.4, 50 mM aq. buffer
[26] = B: 1 day at 80° C., pH 10.2, 50 mM aq. buffer

Q: What does the source list for `C#CCNC(=O)CN1CCN(CC(=O)O)CCN(Cc2cc(-c3ccccc3)cc(CN=[N+]=[N-])n2)CCN(CC(=O)O)CC1` [TD425]?
A: conversion to 1,4-cz-Lig isomer, Li^I [1]: 0%; conversion to 1,5-cz-Lig isomer, Li^I [1]: 2%; conversion to 1,4-cz-Lig isomer [2, 3]: 0%; conversion to 1,5-cz-Lig isomer [2, 3]: 13%; conversion to 1,4-cz-Lig isomer [2, 4]: 0%; conversion to 1,5-cz-Lig isomer [2, 4]: 13%; conversion to 1,4-cz-Lig isomer [2, 5]: 0%; conversion to 1,5-cz-Lig isomer [2, 5]: 13%; conversion to 1,4-cz-Lig isomer [2, 6]: 0%; conversion to 1,5-cz-Lig isomer [2, 6]: 10%; conversion to 1,4-cz-Lig isomer [2, 7]: 0%; conversion to 1,5-cz-Lig isomer [2, 7]: 3%; conversion to 1,4-cz-Lig isomer [2, 8]: 0%; conversion to 1,5-cz-Lig isomer [2, 8]: 1%; conversion to 1,4-cz-Lig isomer [2, 9]: 0%; conversion to 1,5-cz-Lig isomer [2, 9]: 1%; conversion to 1,4-cz-Lig isomer [2, 10]: 0%; conversion to 1,5-cz-Lig isomer [2, 10]: 0%; conversion to 1,4-cz-Lig isomer [2, 11]: 0%; conversion to 1,5-cz-Lig isomer [2, 11]: 0%; conversion to 1,4-cz-Lig isomer [2, 12]: 0%; conversion to 1,5-cz-Lig isomer [2, 12]: 0%; conversion to 1,4-cz-Lig isomer [2, 13]: 0%; conversion to 1,5-cz-Lig isomer [2, 13]: 1%; conversion to 1,4-cz-Lig isomer [2, 14]: 0%; conversion to 1,5-cz-Lig isomer [2, 14]: 1%; conversion to 1,4-cz-Lig isomer [2, 15]: 0%; conversion to 1,5-cz-Lig isomer [2, 15]: 90%; conversion to 1,4-cz-Lig isomer [2, 16]: 0%; conversion to 1,5-cz-Lig isomer [2, 16]: 88%; conversion to 1,4-cz-Lig isomer [2, 17]: 0%; conversion to 1,5-cz-Lig isomer [2, 17]: 93%; conversion to 1,4-cz-Lig isomer [2, 18]: 0%; conversion to 1,5-cz-Lig isomer [2, 18]: 89%; conversion to 1,4-cz-Lig isomer [2, 19]: 0%; conversion to 1,5-cz-Lig isomer [2, 19]: 57%; conversion to 1,4-cz-Lig isomer [2, 20]: 0%; conversion to 1,5-cz-Lig isomer [2, 20]: 15%; conversion to 1,4-cz-Lig isomer [2, 21]: 0%; conversion to 1,5-cz-Lig isomer [2, 21]: 6%; conversion to 1,4-cz-Lig isomer [2, 22]: 1%; conversion to 1,5-cz-Lig isomer [2, 22]: 6%; conversion to 1,4-cz-Lig isomer [2, 23]: 4%; conversion to 1,5-cz-Lig isomer [2, 23]: 8%; conversion to 1,4-cz-Lig isomer [2, 24]: 5%; conversion to 1,5-cz-Lig isomer [2, 24]: 10%; conversion to 1,4-cz-Lig isomer [2, 25]: 4%; conversion to 1,5-cz-Lig isomer [2, 25]: 11%; conversion to 1,4-cz-Lig isomer [2, 26]: 2%; conversion to 1,5-cz-Lig isomer [2, 26]: 12%
